Data as given in paper PMC5218480 (PLoS ONE, 2017).

System: MV-4-11 cells
Assay: Gene expression microarray analysis (Affymetrix PrimeView) and GSEA
Type: cell-based, human
Design: RFU PODN (11730768_x_at) / Fold change /veh PODN (11730768_x_at) / RFU LINC00158 (11744669_a_at) / Fold change /veh LINC00158 (11744669_a_at) / RFU DUSP10 (11751237_a_at) / Fold change /veh DUSP10 (11751237_a_at) / RFU ID3 (11757404_x_at) / Fold change /veh ID3 (11757404_x_at) / RFU PLEKHG5 (11737974_s_at) / Fold change /veh PLEKHG5 (11737974_s_at) / RFU LRRC4B (11730491_at) / Fold change /veh LRRC4B (11730491_at) / RFU GIMAP4 (11747438_a_at) / Fold change /veh GIMAP4 (11747438_a_at) / RFU KRT8 (11758183_x_at) / Fold change /veh KRT8 (11758183_x_at) / RFU CNN1 (11734310_a_at) / Fold change /veh CNN1 (11734310_a_at) / RFU VPS37D (11726825_at) / Fold change /veh VPS37D (11726825_at) / RFU C10orf10 (11716522_x_at) / Fold change /veh C10orf10 (11716522_x_at) / RFU KIR2DL2 /// KIR2DL4 /// KIR2DL5A /// KIR2DL5B /// KIR2DS1 /// KIR2DS2 /// KIR2DS3 /// KIR2DS4 /// KIR3DL3 /// KIR3DL3 /// KIR3DS1 (11738374_at) / Fold change /veh KIR2DL2 /// KIR2DL4 /// KIR2DL5A /// KIR2DL5B /// KIR2DS1 /// KIR2DS2 /// KIR2DS3 /// KIR2DS4 /// KIR3DL3 /// KIR3DL3 /// KIR3DS1 (11738374_at) / RFU C1QL1 (11718748_at) / Fold change /veh C1QL1 (11718748_at) / RFU TMPRSS4 (11747572_a_at) / Fold change /veh TMPRSS4 (11747572_a_at) / RFU HAMP (11756126_x_at) / Fold change /veh HAMP (11756126_x_at) / RFU RNFT2 (11725882_a_at) / Fold change /veh RNFT2 (11725882_a_at) / RFU NR4A2 (11747474_a_at) / Fold change /veh NR4A2 (11747474_a_at) / RFU ABCC12 (11746883_a_at) / Fold change /veh ABCC12 (11746883_a_at) / RFU TMEM136 (11760407_x_at) / Fold change /veh TMEM136 (11760407_x_at) / RFU CLDN22 /// WWC2 (11732394_at) / Fold change /veh CLDN22 /// WWC2 (11732394_at) / RFU HLA-DPB1 (11760878_x_at) / Fold change /veh HLA-DPB1 (11760878_x_at) / RFU SPINT1 (11716480_a_at) / Fold change /veh SPINT1 (11716480_a_at) / RFU GAP43 (11754022_s_at) / Fold change /veh GAP43 (11754022_s_at) / RFU A4GNT (11735810_at) / Fold change /veh A4GNT (11735810_at) / RFU PRB3 (11715151_x_at) / Fold change /veh PRB3 (11715151_x_at) / RFU TUBB4B (11761932_at) / Fold change /veh TUBB4B (11761932_at) / RFU CAPN14 (11732068_a_at) / Fold change /veh CAPN14 (11732068_a_at) / RFU TMCC2 (11721928_a_at) / Fold change /veh TMCC2 (11721928_a_at) / RFU IRGQ (11745062_a_at) / Fold change /veh IRGQ (11745062_a_at) / RFU FAM174B (11720279_a_at) / Fold change /veh FAM174B (11720279_a_at) / RFU TMPRSS4 (11748680_a_at) / Fold change /veh TMPRSS4 (11748680_a_at) / RFU FAM212B (11763350_a_at) / Fold change /veh FAM212B (11763350_a_at) / RFU PLEKHG5 (11743358_a_at) / Fold change /veh PLEKHG5 (11743358_a_at) / RFU ZSCAN30 (11745921_a_at) / Fold change /veh ZSCAN30 (11745921_a_at) / RFU CMKLR1 (11741424_a_at) / Fold change /veh CMKLR1 (11741424_a_at) / RFU LOC101060620 /// MAPK8IP1 (11723275_at) / Fold change /veh LOC101060620 /// MAPK8IP1 (11723275_at) / RFU SPTSSB (11747773_x_at) / Fold change /veh SPTSSB (11747773_x_at) / RFU PRSS12 (11739890_at) / Fold change /veh PRSS12 (11739890_at) / RFU BIN1 (11741810_x_at) / Fold change /veh BIN1 (11741810_x_at) / RFU WNT11 (11732464_a_at) / Fold change /veh WNT11 (11732464_a_at) / RFU C10orf10 (11716521_a_at) / Fold change /veh C10orf10 (11716521_a_at) / RFU C5orf56 (11738089_at) / Fold change /veh C5orf56 (11738089_at) / RFU CYB561 (11721691_x_at) / Fold change /veh CYB561 (11721691_x_at) / RFU ANKRD19P (11752326_a_at) / Fold change /veh ANKRD19P (11752326_a_at) / RFU OR2T12 /// OR2T33 /// OR2T8 (11738714_s_at) / Fold change /veh OR2T12 /// OR2T33 /// OR2T8 (11738714_s_at) / RFU VCAN (11748164_a_at) / Fold change /veh VCAN (11748164_a_at) / RFU JSRP1 (11732532_at) / Fold change /veh JSRP1 (11732532_at) / RFU KRTAP10-11 (11738290_x_at) / Fold change /veh KRTAP10-11 (11738290_x_at) / RFU MYO3A (11730013_a_at) / Fold change /veh MYO3A (11730013_a_at) / RFU EBF3 (11725865_a_at) / Fold change /veh EBF3 (11725865_a_at) / RFU CAMK2N1 (11719241_x_at) / Fold change /veh CAMK2N1 (11719241_x_at) / RFU C5orf56 (11738088_a_at) / Fold change /veh C5orf56 (11738088_a_at) / RFU OLFML3 (11715873_a_at) / Fold change /veh OLFML3 (11715873_a_at) / RFU LOC100653217 /// NTM (11731650_a_at) / Fold change /veh LOC100653217 /// NTM (11731650_a_at) / RFU MAPK11 (11762145_a_at) / Fold change /veh MAPK11 (11762145_a_at) / RFU FIZ1 (11724087_x_at) / Fold change /veh FIZ1 (11724087_x_at) / RFU OASL (11726364_x_at) / Fold change /veh OASL (11726364_x_at) / RFU SOX15 (11748057_x_at) / Fold change /veh SOX15 (11748057_x_at) / RFU CD79A (11719716_a_at) / Fold change /veh CD79A (11719716_a_at) / RFU HIST1H1D (11736915_at) / Fold change /veh HIST1H1D (11736915_at) / RFU CASKIN2 (11723855_a_at) / Fold change /veh CASKIN2 (11723855_a_at) / RFU LOC730098 (11760151_x_at) / Fold change /veh LOC730098 (11760151_x_at) / RFU OR4N2 (11742367_at) / Fold change /veh OR4N2 (11742367_at) / RFU PRRT2 (11749266_a_at) / Fold change /veh PRRT2 (11749266_a_at) / RFU SNX32 (11753110_a_at) / Fold change /veh SNX32 (11753110_a_at) / RFU CDHR5 (11726645_a_at) / Fold change /veh CDHR5 (11726645_a_at) / RFU RCAN1 (11760418_a_at) / Fold change /veh RCAN1 (11760418_a_at) / RFU FAM167A (11723789_a_at) / Fold change /veh FAM167A (11723789_a_at) / RFU FAM26E (11764081_at) / Fold change /veh FAM26E (11764081_at) / RFU ISYNA1 (11749810_s_at) / Fold change /veh ISYNA1 (11749810_s_at) / RFU ACY1 (11761880_at) / Fold change /veh ACY1 (11761880_at) / RFU 11764098_at / Fold change /veh 11764098_at / RFU SAMD14 (11745864_x_at) / Fold change /veh SAMD14 (11745864_x_at) / RFU NPB (11741838_a_at) / Fold change /veh NPB (11741838_a_at) / RFU TMPRSS6 (11731388_a_at) / Fold change /veh TMPRSS6 (11731388_a_at) / RFU KRTAP10-2 (11738614_at) / Fold change /veh KRTAP10-2 (11738614_at) / RFU ARHGAP8 /// PRR5-ARHGAP8 (11727945_x_at) / Fold change /veh ARHGAP8 /// PRR5-ARHGAP8 (11727945_x_at) / RFU KRTAP5-7 /// NADSYN1 (11734609_at) / Fold change /veh KRTAP5-7 /// NADSYN1 (11734609_at) / RFU RASL12 (11751679_a_at) / Fold change /veh RASL12 (11751679_a_at) / RFU CDKN2B (11736163_a_at) / Fold change /veh CDKN2B (11736163_a_at) / RFU PRF1 (11729649_at) / Fold change /veh PRF1 (11729649_at) / RFU, ZNF638 /// ZNF638-IT1 / Fold change vs veh, ZNF638 /// ZNF638-IT1 / RFU, PANK3 / Fold change vs veh, PANK3 / RFU, SH3YL1 / Fold change vs veh, SH3YL1 / RFU, ZEB2 / Fold change vs veh, ZEB2 / RFU, NRIP1 / Fold change vs veh, NRIP1 / RFU, PTTG1IP / Fold change vs veh, PTTG1IP / RFU, CAPN2 / Fold change vs veh, CAPN2 / RFU, MED14 / Fold change vs veh, MED14 / RFU, SNORA58 / Fold change vs veh, SNORA58 / RFU, C1orf63 / Fold change vs veh, C1orf63 / RFU, LRRFIP1 / Fold change vs veh, LRRFIP1 / RFU, NDUFAF7 / Fold change vs veh, NDUFAF7 / RFU, SLC12A2 / Fold change vs veh, SLC12A2 / RFU, IBTK / Fold change vs veh, IBTK / RFU, ESF1 / Fold change vs veh, ESF1 / Fold change vs veh, TMEM50B / RFU, TAOK1 / Fold change vs veh, TAOK1 / RFU, ACBD3 / Fold change vs veh, ACBD3 / RFU, TMA16 / Fold change vs veh, TMA16 / RFU, RWDD3 / Fold change vs veh, RWDD3 / RFU, BCAT1 / Fold change vs veh, BCAT1 / RFU, EDEM3 / Fold change vs veh, EDEM3 / RFU, TMEM33 / Fold change vs veh, TMEM33 / RFU, WDR75 / Fold change vs veh, WDR75 / RFU, AHCTF1 / Fold change vs veh, AHCTF1 / RFU, TFRC / Fold change vs veh, TFRC / RFU, ZDHHC17 / Fold change vs veh, ZDHHC17 / RFU, NOM1 / Fold change vs veh, NOM1 / RFU, ARL8B / Fold change vs veh, ARL8B / RFU, ZBTB11 / Fold change vs veh, ZBTB11 / RFU, TAMM41 / Fold change vs veh, TAMM41 / RFU, KIAA1704 /// LOC100996395 / Fold change vs veh, KIAA1704 /// LOC100996395 / RFU, ING1 / Fold change vs veh, ING1 / RFU, TRMT61B / Fold change vs veh, TRMT61B / RFU, FUBP3 / Fold change vs veh, FUBP3 / RFU, TP53 / Fold change vs veh, TP53 / RFU, TNKS2 / Fold change vs veh, TNKS2 / RFU, ZFP14 / Fold change vs veh, ZFP14 / RFU, ACTR2 / Fold change vs veh, ACTR2 / RFU, PPP3R1 / Fold change vs veh, PPP3R1 / RFU, PIK3R1 / Fold change vs veh, PIK3R1 / RFU, HNRNPA1 / Fold change vs veh, HNRNPA1 / RFU, RNF170 / Fold change vs veh, RNF170 / RFU, ZNF28 / Fold change vs veh, ZNF28 / RFU, RNGTT / Fold change vs veh, RNGTT / RFU, OGT / Fold change vs veh, OGT / RFU, BRD1 / Fold change vs veh, BRD1 / RFU, MARS / Fold change vs veh, MARS / RFU, ZNF655 / Fold change vs veh, ZNF655 / RFU, FAHD1 / Fold change vs veh, FAHD1 / RFU, BDP1 / Fold change vs veh, BDP1 / RFU, LRRCC1 / Fold change vs veh, LRRCC1 / RFU, ARID1A / Fold change vs veh, ARID1A / RFU, ZNF146 / Fold change vs veh, ZNF146 / RFU, ZNF330 / Fold change vs veh, ZNF330 / RFU, GPN3 / Fold change vs veh, GPN3 / RFU, C9orf123 / Fold change vs veh, C9orf123 / RFU, N4BP2L2 / Fold change vs veh, N4BP2L2 / RFU, ARFIP1 / Fold change vs veh, ARFIP1 / RFU, FAM179B / Fold change vs veh, FAM179B / RFU, BCL10 / Fold change vs veh, BCL10 / RFU, UHRF1BP1L / Fold change vs veh, UHRF1BP1L / RFU, BET1 / Fold change vs veh, BET1 / RFU, CNOT2 / Fold change vs veh, CNOT2 / RFU, ZNF268 / Fold change vs veh, ZNF268 / Fold change vs veh, ZNF507 / RFU, DGCR2 / Fold change vs veh, DGCR2 / RFU, WDSUB1 / Fold change vs veh, WDSUB1 / Fold change vs veh, HSP90B1 /// MIR3652 / RFU, ADSS / Fold change vs veh, ADSS / RFU, GK / Fold change vs veh, GK / RFU, ZNF148 / Fold change vs veh, ZNF148 / RFU, TAF9 / Fold change vs veh, TAF9 / RFU, SLC1A5 / Fold change vs veh, SLC1A5 / RFU, SLMO2 / Fold change vs veh, SLMO2 / RFU, ABCC4 / Fold change vs veh, ABCC4 / RFU, LOC101060439 /// RAP1B / Fold change vs veh, LOC101060439 /// RAP1B / RFU, RFX7 / Fold change vs veh, RFX7 / RFU, GTPBP10 / Fold change vs veh, GTPBP10 / RFU, CNEP1R1 / Fold change vs veh, CNEP1R1 / RFU, BIVM-ERCC5 /// ERCC5 / Fold change vs veh, BIVM-ERCC5 /// ERCC5 / RFU, ILF3 / Fold change vs veh, ILF3 / RFU 11762660_at / Fold change /veh 11762660_at / RFU VCAN (11757783_s_at) / Fold change /veh VCAN (11757783_s_at) / RFU DDX43 (11728927_at) / Fold change /veh DDX43 (11728927_at) / RFU KRT8 (11758188_x_at) / Fold change /veh KRT8 (11758188_x_at) / RFU NKD1 (11759106_at) / Fold change /veh NKD1 (11759106_at) / RFU SRD5A1 (11742802_a_at) / Fold change /veh SRD5A1 (11742802_a_at) / RFU TPSAB1 /// TPSB2 (11721975_s_at) / Fold change /veh TPSAB1 /// TPSB2 (11721975_s_at) / RFU GSTM3 (11746129_a_at) / Fold change /veh GSTM3 (11746129_a_at) / RFU IL23R (11737362_x_at) / Fold change /veh IL23R (11737362_x_at) / RFU TMEM51 (11727254_a_at) / Fold change /veh TMEM51 (11727254_a_at) / RFU PIWIL2 (11732686_x_at) / Fold change /veh PIWIL2 (11732686_x_at) / RFU ORM1 (11744905_x_at) / Fold change /veh ORM1 (11744905_x_at) / RFU CCDC152 (11743942_at) / Fold change /veh CCDC152 (11743942_at) / RFU ECM1 (11717891_a_at) / Fold change /veh ECM1 (11717891_a_at) / RFU IL23R (11748794_a_at) / Fold change /veh IL23R (11748794_a_at) / RFU TNFAIP8L3 (11732012_x_at) / Fold change /veh TNFAIP8L3 (11732012_x_at) / RFU MBOAT4 (11741988_at) / Fold change /veh MBOAT4 (11741988_at) / RFU 11764193_at / Fold change /veh 11764193_at / RFU TMEM53 (11763286_at) / Fold change /veh TMEM53 (11763286_at) / RFU MAGEB2 (11727129_at) / Fold change /veh MAGEB2 (11727129_at) / RFU TMEM200A (11744735_a_at) / Fold change /veh TMEM200A (11744735_a_at) / RFU CCDC152 (11751479_a_at) / Fold change /veh CCDC152 (11751479_a_at) / RFU FAM211A (11726209_a_at) / Fold change /veh FAM211A (11726209_a_at) / RFU RGS16 (11746705_a_at) / Fold change /veh RGS16 (11746705_a_at) / RFU VCAN (11755009_s_at) / Fold change /veh VCAN (11755009_s_at) / RFU RHOB (11743442_s_at) / Fold change /veh RHOB (11743442_s_at) / RFU RGS16 (11720943_a_at) / Fold change /veh RGS16 (11720943_a_at) / RFU RGS16 (11720944_at) / Fold change /veh RGS16 (11720944_at) / RFU, VPS4B / Fold change vs veh, VPS4B / RFU, CREB1 / Fold change vs veh, CREB1 / RFU, DNAJC13 / Fold change vs veh, DNAJC13 / RFU, GNAQ / Fold change vs veh, GNAQ / RFU, CDK5R1 / Fold change vs veh, CDK5R1 / RFU, ZRANB3 / Fold change vs veh, ZRANB3 / RFU, CUL4A / Fold change vs veh, CUL4A / RFU, CCNY / Fold change vs veh, CCNY / RFU, UFL1 / Fold change vs veh, UFL1 / RFU, COG3 / Fold change vs veh, COG3 / RFU, DIAPH2 / Fold change vs veh, DIAPH2 / RFU, SKA2 / Fold change vs veh, SKA2 / RFU, AFF3 / Fold change vs veh, AFF3 / RFU, LMF1 / Fold change vs veh, LMF1 / RFU, IPO11 / Fold change vs veh, IPO11 / RFU, DFFB / Fold change vs veh, DFFB / RFU, FOXP1 / Fold change vs veh, FOXP1 / RFU, CARD8 / Fold change vs veh, CARD8 / RFU, STRN3 / Fold change vs veh, STRN3 / RFU, ADK / Fold change vs veh, ADK / RFU, RASSF2 / Fold change vs veh, RASSF2 / RFU, WIPF1 / Fold change vs veh, WIPF1 / RFU, LARP1B / Fold change vs veh, LARP1B / RFU, RASA1 / Fold change vs veh, RASA1 / RFU, RB1 / Fold change vs veh, RB1 / RFU, PPFIA1 / Fold change vs veh, PPFIA1 / RFU, MAT2A / Fold change vs veh, MAT2A / RFU, CCT5 / Fold change vs veh, CCT5 / RFU, WDR92 / Fold change vs veh, WDR92 / RFU, CUX1 / Fold change vs veh, CUX1 / RFU, TTC7A / Fold change vs veh, TTC7A / RFU, TMEM135 / Fold change vs veh, TMEM135 / RFU, DEPTOR / Fold change vs veh, DEPTOR / RFU, CPM / Fold change vs veh, CPM / RFU, DNAJB6 / Fold change vs veh, DNAJB6 / RFU, CACNA2D3 / Fold change vs veh, CACNA2D3 / RFU, DTX4 / Fold change vs veh, DTX4 / RFU, TFCP2 / Fold change vs veh, TFCP2 / RFU, GMCL1 /// GMCL1P1 / Fold change vs veh, GMCL1 /// GMCL1P1 / RFU, AEBP2 / Fold change vs veh, AEBP2 / RFU, SNHG1 /// SNORD22 /// SNORD25 /// SNORD26 /// SNORD27 /// SNORD28 /// SNORD29 /// SNORD31 / Fold change vs veh, SNHG1 /// SNORD22 /// SNORD25 /// SNORD26 /// SNORD27 /// SNORD28 /// SNORD29 /// SNORD31 / Fold change (Aza/veh), C12orf56 (ProbeSet 11735607_a_at) / Fold change (ACY-1035/veh), C12orf56 (ProbeSet 11735607_a_at) / Fold change (Aza/veh), FGFR1OP (ProbeSet 11751329_s_at) / Fold change (ACY-1035/veh), FGFR1OP (ProbeSet 11751329_s_at) / Fold change (Aza/veh), VPS36 (ProbeSet 11739960_a_at) / Fold change (ACY-1035/veh), VPS36 (ProbeSet 11739960_a_at) / RFU SYPL1 (11715823_x_at) / Fold change /veh SYPL1 (11715823_x_at) / RFU IGFBP7 (11715501_s_at) / Fold change /veh IGFBP7 (11715501_s_at) / RFU REEP3 (11722064_at) / Fold change /veh REEP3 (11722064_at) / RFU IGLL1 (11728026_x_at) / Fold change /veh IGLL1 (11728026_x_at): dose or concentration left out as unconfirmed
Details: ProbeSet 11719817_x_at; LIST B

Nc1ncn([C@@H]2O[C@H](CO)[C@@H](O)[C@H]2O)c(=O)n1 [azacitidine]
Fold change vs veh, BET1: 0.89
